Results published in patent US7361685B2, “Compounds for use in the treatment of skin conditions” (Oregon Health & Science University, priority 2001, dated 2008).
“And” between values parts separate entries of the source, which are not always exact repeats. Equal entries are not always repeated.

Legend:
[1] = test system: mouse melan-a cell line; experiment: Microplate culture and sulforhodamine B (SRB) proliferation assay, melan-a melanocytes; format: cell-based
Experimental: A supplemental growth medium of 10% foetal bovine serum (FBS) was added to the […] microtiter plates. The plates were incubated at 37° C. in a 10% CO2, 90% air humidified atmosphere for 4 days. At the end of the incubation, an SRB assay was performed. Briefly, cells attached to the bottom of the plate were fixed by addition of cold trichloroacetic acid (TCA, 4° C., Aldrich, Dorset, UK) on the top of the growth medium (final TCA 20% w/v). The plate was placed at 4° C. for 1 hour before being gently washed five times with tap water. It was allowed to dry in air, or aided with a hair dryer to speed up the drying process, then 50 μl of […] SRB dissolved in 1% acetic acid in water was added to each well for 30 min. At the end of the staining period, unbound SRB was removed by washing 4 times with 1% acetic acid. The plate was air dried again, and 150 μl of 10 mM aqueous Tris base (Sigma-Aldrich Co. Ltd, Irvine, UK) was added into each well to solubilize the cell-bound dye. […] A control assay was carried out on cells incubated without test compound. There were 2 or 3 series of experiments, each of which consisted of six replicate experiments.
Various compounds of formula (1) were synthesised and tested for melanocyte (mouse melan-a) proliferant activity in-vitro. Cells were incubated with the test compound for 4 days, as described above.
Percentage cell growth was obtained with a given compound calculated as (optical density in the presence of the compound/control optical density)×100.
Melan-a cell proliferant activity for tested compounds was compared with that obtained with piperine. […] All figures are given with Standard Error of the Mean.

[2] = test system: melan-a cells; experiment: Dendricity of melan-a cells by observation under microscope; format: cell-based, mouse; design: key to Dendricity of RV-A08: +++: highly dendiitic; ++: moderately dendritic; +: weakly dendritic; key to Dentricity of RV-A07 / Dendricity of RV-A09 / Dendricity of RV-A10 / Dendricity: +++: highly dendritic; ++: moderately dendritic; +: weakly dendritic; −: no effect
Excerpt: Effect on dendricity of melan-a cells by the test compounds was by observation under microscope. Dendricity is relevant to vitiligo since normal skin melanocytes have dendrites, but in vitiligo the melanocytes seem to lose these before they disappear from the patches.

| Molecule | Percentage cell growth ([1]; 1 μM, 4 days, ± SEM) | Stimulant activity ([1]; 10 μM) | Percentage cell growth ([1]; 10 μM, 4 days, ± SEM) | Percentage cell growth ([1]; 50 μM, 4 days, ± SEM) | Percentage cell growth ([1]; 100 μM, 4 days, ± SEM) | Dendricity of RV-A10 ([2]; 10 μM) | Dendricity of RV-A10 ([2]; 50 μM) | Dentricity of RV-A07 ([2]; 10 μM) | Dendricity ([2]; 1 μM (tables RV-C04, RV-C05)) | Dendricity ([2]; 10 μM (tables RV-C04, RV-C05)) | Dendricity ([2]; 50 μM (tables RV-C04, RV-C05)) | Dendricity ([2]; 100 μM (tables RV-C04, RV-C05)) | Dendricity of RV-A08 ([2]; 10 μM) | Dendricity of RV-A09 ([2]; 10 μM) | Percentage cell growth (Repeated experiments) Test cpd. ([1]; 10 μM test compound, 4 days, OD vs control x100, ± SEM) | Percentage cell growth ([1]; 25 μM, 4 days, ± SEM) | Percentage cell growth (Repeated experiments) Piperine ([1]; 10 μM piperine run alongside the test compound, 4 days, ± SEM) |
| --- | --- | --- | --- | --- | --- | --- | --- | --- | --- | --- | --- | --- | --- | --- | --- | --- | --- |
| O=C(/C=C/C=C/c1ccc2c(c1)OCO2)NC1CCCCC1 [RV-A10, 5-E,E-piperinoyl cyclohexylamine] | 301 ± 20**□ % | Positive | 308 ± 29 % | 155 ± 22**□ % | 100 ± 13% | +++ | ++ |  |  |  |  |  |  |  |  |  |  |
| CNC(=O)/C=C/C=C/c1ccc2c(c1)OCO2 [RV-A07, 5-E,E-piperinoylmethylamine] | 140 ± 12 % | Positive | 170 ± 24 % | 71 ± 5% | 46 ± 2% |  |  | ++ |  |  |  |  |  |  |  |  |  |
| 7-(3,4-methylenedioxy phenyl)-heptanoic acid piperidineamide [RV-C05] | 118 ± 1% |  | 160 ± 5**♦ % | 158 ± 19 % | 113 ± 15% |  |  |  | + | ++ | ++ | + |  |  |  |  |  |
| CCNC(=O)/C=C/C=C/c1ccc2c(c1)OCO2 [RV-A08] | 139 ± 27 % | Positive | 200 ± 14 % | 81 ± 12% | 62 ± 13% |  |  |  |  |  |  |  | +++ |  |  |  |  |
| O=C(CCCCc1ccc2c(c1)OCO2)NC1CCCCC1 [RV-C04, 5-(3,4-methylenedioxyphenyl)-pentanoic acid cyclohexylamide] | 129 ± 6 % |  | 192 ± 6 % | 192 ± 10 % | 191 ± 12 % |  |  |  | + | +++ | +++ | +++ |  |  |  |  |  |
| CC(C)NC(=O)/C=C/C=C/c1ccc2c(c1)OCO2 [RV-A09, 5-E,E-piperinoylisopropylamine] | 187 ± 15 % | Positive | 224 ± 19 % | 85 ± 5% | 42 ± 6% |  |  |  |  |  |  |  |  | +++ |  |  |  |
| O=C(/C=C/C=C/c1ccc2c(c1)OCO2)N1CCOCC1 [RV-A02, 5-E,E-piperinoyl morpholine] | 125 ± 10% | Positive | 167 ± 17 % | 168 ± 12**□ % |  |  |  |  |  |  |  |  |  |  | 156 ± 58% and 187 ± 40% and 153 ± 19% | 171 ± 8 % |  |
| O=C(/C=C/C=C/c1ccc2c(c1)OCO2)N1CCCCC1 [Piperine, reference compound] | 147 ± 11**♦ % and 211 ± 16**♦ % and 216 ± 14**♦ % and 221 ± 17**♦ % and 236 ± 30 % and 191 ± 12**♦ % and 161 ± 13 % |  | 192 ± 13**♦ % and 216 ± 33 % and 236 ± 17 % and 263 ± 16 % and 302 ± 17 % and 216 ± 18 % and 192 ± 2**♦ % |  |  |  |  |  |  |  |  |  |  |  |  | 167 ± 19 % | 236 ± 17% and 263 + 16** % and 302 ± 17 % and 210 ± 65% and 170 ± 22% and 155 ± 19% and 216 ± 33 % |
